ChEMBL document CHEMBL4507291 (2021)

What was measured:
[1] = target: Homeodomain-interacting protein kinase 1 (Homo sapiens) (UniProt Q86Z02)
[2] = target: Cyclin-dependent kinase 5 (Homo sapiens) (UniProt Q00535)
[3] = target: 5-hydroxytryptamine receptor 1B (Homo sapiens) (UniProt P28222); conditions: Compound concentration 10.0 uM
[4] = target: Serine/threonine-protein kinase WNK3 (Homo sapiens) (UniProt Q9BYP7)
[5] = target: T1, Ephrin type-B receptor 4 (Homo sapiens) (UniProt P54760)
T1 sequence (whole entry): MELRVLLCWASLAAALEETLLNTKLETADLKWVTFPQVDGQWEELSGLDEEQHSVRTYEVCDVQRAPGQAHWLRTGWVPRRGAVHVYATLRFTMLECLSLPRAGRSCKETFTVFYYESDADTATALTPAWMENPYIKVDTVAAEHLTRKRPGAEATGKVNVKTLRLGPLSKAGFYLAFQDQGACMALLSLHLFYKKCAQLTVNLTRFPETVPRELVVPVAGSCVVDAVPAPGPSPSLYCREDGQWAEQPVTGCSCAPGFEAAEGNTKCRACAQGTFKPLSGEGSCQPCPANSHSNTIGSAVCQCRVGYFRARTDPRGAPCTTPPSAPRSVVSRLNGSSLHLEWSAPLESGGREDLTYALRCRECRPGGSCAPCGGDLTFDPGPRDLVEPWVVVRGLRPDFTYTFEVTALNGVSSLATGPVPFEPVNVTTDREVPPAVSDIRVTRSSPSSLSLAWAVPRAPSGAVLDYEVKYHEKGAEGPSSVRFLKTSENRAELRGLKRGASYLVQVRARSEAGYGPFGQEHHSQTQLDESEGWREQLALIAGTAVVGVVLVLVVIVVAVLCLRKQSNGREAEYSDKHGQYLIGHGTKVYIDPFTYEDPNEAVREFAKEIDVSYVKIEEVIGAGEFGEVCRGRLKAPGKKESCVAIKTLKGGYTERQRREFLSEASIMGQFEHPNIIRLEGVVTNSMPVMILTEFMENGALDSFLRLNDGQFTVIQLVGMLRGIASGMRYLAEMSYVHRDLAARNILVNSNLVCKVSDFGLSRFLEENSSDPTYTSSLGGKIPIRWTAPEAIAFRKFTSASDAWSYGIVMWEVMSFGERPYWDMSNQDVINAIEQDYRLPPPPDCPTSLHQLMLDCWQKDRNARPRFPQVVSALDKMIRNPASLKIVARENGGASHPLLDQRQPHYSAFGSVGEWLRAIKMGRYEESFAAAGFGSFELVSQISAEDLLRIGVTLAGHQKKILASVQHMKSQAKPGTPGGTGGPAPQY

[6] = target: Serine/threonine-protein kinase MARK2 (Homo sapiens) (UniProt Q7KZI7)
Sequence of Serine/threonine-protein kinase MARK2 (Homo sapiens) (Q7KZI7 whole entry): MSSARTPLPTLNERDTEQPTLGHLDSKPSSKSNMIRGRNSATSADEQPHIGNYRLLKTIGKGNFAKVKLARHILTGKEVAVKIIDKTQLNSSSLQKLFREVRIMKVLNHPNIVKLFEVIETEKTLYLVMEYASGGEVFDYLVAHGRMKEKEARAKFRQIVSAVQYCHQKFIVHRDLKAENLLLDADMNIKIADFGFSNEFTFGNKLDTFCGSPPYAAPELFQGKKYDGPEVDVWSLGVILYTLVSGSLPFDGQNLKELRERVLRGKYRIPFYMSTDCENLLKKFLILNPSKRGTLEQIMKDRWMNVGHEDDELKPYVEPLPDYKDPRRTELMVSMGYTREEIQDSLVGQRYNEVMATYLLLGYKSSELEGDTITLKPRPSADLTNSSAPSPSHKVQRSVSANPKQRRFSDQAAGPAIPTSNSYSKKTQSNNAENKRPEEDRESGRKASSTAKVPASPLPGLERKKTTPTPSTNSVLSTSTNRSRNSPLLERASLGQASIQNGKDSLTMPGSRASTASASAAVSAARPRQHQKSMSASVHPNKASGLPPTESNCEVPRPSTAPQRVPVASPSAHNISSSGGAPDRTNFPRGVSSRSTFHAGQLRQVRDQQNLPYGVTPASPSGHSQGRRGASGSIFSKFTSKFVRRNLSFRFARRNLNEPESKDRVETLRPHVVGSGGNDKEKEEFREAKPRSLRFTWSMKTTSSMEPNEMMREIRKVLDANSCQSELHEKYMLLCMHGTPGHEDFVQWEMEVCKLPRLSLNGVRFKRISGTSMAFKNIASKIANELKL

[7] = target: Tyrosine-protein kinase Fgr (Homo sapiens) (UniProt P09769)
Sequence of Tyrosine-protein kinase Fgr (Homo sapiens) (P09769 2-529 limits assumed): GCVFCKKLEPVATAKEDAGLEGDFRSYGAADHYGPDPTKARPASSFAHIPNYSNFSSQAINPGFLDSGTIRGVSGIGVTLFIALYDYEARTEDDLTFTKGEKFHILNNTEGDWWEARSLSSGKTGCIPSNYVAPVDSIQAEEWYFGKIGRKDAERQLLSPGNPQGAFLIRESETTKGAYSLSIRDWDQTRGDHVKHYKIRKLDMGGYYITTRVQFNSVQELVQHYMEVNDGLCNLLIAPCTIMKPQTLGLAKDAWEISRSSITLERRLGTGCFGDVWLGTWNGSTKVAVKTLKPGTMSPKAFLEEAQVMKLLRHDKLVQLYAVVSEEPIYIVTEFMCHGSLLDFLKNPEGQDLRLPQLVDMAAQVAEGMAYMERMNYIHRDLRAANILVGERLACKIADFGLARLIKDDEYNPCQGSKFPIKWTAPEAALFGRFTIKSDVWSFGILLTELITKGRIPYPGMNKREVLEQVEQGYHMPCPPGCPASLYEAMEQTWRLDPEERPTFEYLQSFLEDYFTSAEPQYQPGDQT

[8] = target: Serine/threonine-protein kinase RIO2 (Homo sapiens) (UniProt Q9BVS4)
Sequence of Serine/threonine-protein kinase RIO2 (Homo sapiens) (Q9BVS4 whole entry, looked up): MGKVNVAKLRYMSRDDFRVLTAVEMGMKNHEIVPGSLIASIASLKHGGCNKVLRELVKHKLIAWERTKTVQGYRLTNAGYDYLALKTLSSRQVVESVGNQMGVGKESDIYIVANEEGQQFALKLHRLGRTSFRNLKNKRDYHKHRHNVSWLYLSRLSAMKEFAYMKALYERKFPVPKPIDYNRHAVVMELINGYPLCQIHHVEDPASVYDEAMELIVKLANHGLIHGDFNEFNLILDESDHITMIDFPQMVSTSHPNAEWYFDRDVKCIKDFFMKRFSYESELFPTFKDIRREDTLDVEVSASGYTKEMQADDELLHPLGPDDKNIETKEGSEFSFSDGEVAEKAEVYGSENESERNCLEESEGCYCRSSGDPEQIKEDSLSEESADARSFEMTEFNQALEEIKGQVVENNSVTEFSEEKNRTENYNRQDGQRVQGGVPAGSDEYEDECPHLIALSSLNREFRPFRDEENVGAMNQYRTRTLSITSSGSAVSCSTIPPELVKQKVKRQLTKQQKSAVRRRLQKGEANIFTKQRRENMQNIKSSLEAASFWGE

[9] = target: Vascular endothelial growth factor receptor 1 (Homo sapiens) (UniProt P17948)
Sequence of Vascular endothelial growth factor receptor 1 (Homo sapiens) (P17948 whole entry): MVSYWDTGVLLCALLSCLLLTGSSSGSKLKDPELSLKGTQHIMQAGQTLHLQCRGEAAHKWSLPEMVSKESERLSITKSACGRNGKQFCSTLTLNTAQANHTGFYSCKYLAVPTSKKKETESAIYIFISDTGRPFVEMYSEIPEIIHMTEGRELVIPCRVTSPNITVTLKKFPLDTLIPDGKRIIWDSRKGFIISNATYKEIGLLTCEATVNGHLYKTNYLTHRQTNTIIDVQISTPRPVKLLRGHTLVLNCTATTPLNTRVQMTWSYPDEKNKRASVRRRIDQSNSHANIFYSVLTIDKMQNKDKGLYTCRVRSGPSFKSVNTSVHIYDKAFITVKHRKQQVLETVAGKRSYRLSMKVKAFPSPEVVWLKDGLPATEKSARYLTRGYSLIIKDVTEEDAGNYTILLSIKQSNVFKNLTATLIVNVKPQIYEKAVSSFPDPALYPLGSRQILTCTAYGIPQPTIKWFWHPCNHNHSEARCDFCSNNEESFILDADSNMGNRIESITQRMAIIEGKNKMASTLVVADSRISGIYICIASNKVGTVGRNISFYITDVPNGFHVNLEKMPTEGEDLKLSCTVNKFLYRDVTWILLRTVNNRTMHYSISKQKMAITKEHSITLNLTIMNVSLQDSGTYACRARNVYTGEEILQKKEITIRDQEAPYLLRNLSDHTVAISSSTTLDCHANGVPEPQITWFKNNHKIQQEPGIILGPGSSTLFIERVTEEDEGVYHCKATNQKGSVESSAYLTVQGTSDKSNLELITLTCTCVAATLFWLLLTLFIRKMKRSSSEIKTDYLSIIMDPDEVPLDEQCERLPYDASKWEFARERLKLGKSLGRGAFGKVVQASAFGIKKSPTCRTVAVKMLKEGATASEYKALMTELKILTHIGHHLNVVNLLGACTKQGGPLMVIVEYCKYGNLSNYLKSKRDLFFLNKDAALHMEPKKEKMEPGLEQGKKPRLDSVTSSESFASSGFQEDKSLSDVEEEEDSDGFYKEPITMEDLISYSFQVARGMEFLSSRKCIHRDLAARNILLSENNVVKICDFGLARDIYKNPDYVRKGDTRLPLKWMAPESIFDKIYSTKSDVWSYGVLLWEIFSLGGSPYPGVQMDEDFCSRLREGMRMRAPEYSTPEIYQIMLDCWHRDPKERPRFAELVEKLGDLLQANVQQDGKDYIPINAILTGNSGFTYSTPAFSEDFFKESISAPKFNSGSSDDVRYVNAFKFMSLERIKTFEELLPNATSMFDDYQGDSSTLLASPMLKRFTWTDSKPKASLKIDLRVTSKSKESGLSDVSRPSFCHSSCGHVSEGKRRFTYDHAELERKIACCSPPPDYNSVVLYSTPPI

[10] = target: T2, Alpha-2B adrenergic receptor (Homo sapiens) (UniProt P18089); conditions: Compound concentration 10.0 uM
T2 sequence (whole entry): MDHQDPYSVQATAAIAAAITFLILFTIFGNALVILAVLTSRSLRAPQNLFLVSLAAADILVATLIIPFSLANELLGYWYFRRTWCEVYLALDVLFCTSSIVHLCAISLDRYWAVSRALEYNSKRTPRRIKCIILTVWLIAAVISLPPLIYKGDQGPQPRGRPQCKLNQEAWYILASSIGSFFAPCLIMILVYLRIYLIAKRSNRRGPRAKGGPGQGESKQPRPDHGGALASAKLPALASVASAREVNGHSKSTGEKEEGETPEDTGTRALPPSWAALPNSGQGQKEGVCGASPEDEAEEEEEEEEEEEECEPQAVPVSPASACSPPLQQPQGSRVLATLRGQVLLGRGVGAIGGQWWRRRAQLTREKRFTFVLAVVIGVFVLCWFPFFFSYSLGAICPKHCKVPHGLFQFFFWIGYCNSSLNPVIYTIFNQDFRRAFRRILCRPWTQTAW

[11] = target: Misshapen-like kinase 1 (Homo sapiens) (UniProt Q8N4C8)
Sequence of Misshapen-like kinase 1 (Homo sapiens) (Q8N4C8 whole entry, looked up): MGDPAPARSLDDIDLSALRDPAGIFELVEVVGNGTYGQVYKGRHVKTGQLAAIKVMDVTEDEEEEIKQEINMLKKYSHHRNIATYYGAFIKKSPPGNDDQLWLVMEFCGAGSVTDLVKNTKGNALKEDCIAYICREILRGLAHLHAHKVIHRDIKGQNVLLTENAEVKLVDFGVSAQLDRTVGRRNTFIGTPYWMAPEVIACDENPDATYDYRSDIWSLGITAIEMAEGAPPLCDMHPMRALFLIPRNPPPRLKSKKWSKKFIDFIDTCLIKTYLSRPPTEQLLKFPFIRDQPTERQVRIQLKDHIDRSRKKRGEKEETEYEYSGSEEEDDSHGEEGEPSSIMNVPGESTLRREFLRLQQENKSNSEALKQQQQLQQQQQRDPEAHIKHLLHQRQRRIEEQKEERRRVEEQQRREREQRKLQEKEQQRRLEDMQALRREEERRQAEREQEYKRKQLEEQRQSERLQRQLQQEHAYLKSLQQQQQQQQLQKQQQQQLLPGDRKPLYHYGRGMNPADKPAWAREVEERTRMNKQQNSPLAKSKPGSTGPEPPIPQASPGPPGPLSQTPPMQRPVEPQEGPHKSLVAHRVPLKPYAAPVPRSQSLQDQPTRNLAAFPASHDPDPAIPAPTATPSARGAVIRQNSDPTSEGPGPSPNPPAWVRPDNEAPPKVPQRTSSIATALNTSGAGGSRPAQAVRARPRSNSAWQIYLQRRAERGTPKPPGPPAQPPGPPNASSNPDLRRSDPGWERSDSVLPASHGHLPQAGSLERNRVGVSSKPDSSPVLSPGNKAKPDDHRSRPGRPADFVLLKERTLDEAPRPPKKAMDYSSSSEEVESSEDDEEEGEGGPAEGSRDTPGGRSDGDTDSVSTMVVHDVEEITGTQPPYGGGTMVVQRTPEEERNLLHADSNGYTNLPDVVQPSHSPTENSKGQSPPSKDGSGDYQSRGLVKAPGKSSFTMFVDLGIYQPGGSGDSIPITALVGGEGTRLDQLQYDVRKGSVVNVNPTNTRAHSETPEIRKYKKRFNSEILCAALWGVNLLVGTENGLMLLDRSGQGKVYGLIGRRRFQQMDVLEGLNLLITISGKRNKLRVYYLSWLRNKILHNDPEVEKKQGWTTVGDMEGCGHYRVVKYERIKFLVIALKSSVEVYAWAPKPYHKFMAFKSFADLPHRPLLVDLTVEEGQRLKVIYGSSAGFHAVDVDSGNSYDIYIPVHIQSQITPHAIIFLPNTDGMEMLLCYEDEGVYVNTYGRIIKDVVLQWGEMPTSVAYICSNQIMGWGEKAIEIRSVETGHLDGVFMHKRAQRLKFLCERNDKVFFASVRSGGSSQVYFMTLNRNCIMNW

[12] = target: Serine/threonine-protein kinase mTOR (Homo sapiens) (UniProt P42345)
[13] = target: T3, Mitogen-activated protein kinase 12 (Homo sapiens) (UniProt P53778)
T3 sequence (whole entry): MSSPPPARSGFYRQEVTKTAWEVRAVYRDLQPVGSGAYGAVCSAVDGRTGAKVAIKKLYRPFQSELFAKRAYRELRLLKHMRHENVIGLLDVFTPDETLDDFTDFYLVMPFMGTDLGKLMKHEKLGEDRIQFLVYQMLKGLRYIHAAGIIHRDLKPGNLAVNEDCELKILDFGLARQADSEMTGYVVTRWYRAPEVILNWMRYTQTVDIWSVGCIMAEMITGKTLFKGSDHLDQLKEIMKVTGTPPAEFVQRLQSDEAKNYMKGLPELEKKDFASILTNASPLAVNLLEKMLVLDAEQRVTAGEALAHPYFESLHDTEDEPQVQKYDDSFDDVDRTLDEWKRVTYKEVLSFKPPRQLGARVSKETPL

[14] = Compound concentration 100.0 nM
[15] = Compound concentration 1000.0 nM

Sequence of Cyclin-dependent kinase 5 (Homo sapiens) (Q00535 whole entry, looked up): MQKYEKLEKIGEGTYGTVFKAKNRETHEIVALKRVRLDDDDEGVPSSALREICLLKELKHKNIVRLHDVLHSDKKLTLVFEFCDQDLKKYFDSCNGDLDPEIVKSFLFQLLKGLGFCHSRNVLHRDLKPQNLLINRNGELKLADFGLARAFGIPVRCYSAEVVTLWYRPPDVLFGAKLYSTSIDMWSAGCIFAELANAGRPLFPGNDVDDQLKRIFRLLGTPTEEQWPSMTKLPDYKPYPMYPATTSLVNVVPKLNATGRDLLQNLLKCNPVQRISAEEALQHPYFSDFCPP

C[C@@H]1CN(c2cc(-c3n[nH]c4ccc(OC5(C)CC5)cc34)ncn2)C[C@H](C)O1 [MLi-2]
inactive: residual activity [1, 14] 69% | residual activity [2, 14] 100% | inhibition [3] 1.16% | residual activity [4, 14] 73% | residual activity [5, 14] 79% | residual activity [6, 14] 100% | residual activity [7, 14] 89% | residual activity [8, 14] 68% | residual activity [9, 14] 100% | inhibition [10] 6.1% | residual activity [11, 14] 84% | residual activity [12, 14] 99% | residual activity [13, 14] 96%

C[C@@H]1CN(c2cc(-c3nn(C)c4ccc(OC5(C)CC5)cc34)ncn2)C[C@H](C)O1 [MLi-2-NC]
inactive: residual activity [1, 15] 85% | residual activity [2, 15] 100% | inhibition [3] 7.83% | residual activity [4, 15] 91% | residual activity [5, 15] 100% | residual activity [6, 15] 89% | residual activity [7, 15] 90% | residual activity [8, 15] 100% | residual activity [9, 15] 95% | inhibition [10] 27.2% | residual activity [11, 15] 66% | residual activity [12, 15] 100% | residual activity [13, 15] 100%
